The values that follow are results of earlier work, collected in US4410715A, “Process for the epoxidation of olefins using a group V metal co-catalyst I and a phenolic hydrocarbon co-catalyst II” (Exxon Research & Engineering Co., priority 1982, dated 1983).

By pKa is commonly meant the negative logarithm of the acid dissociation constant.

For one data set the following is noted: aqueous solution at 25° C.
Take `Cc1ccc(O)cc1` [p-cresol]: the pKa is recorded as 10.2.
As for `Oc1ccc(Cl)cc1Cl` [2,4-DCP, 2,4-dichlorophenol], the pKa is reported as 7.7.
For the compound `CC(C)(C)c1ccc(O)c(C(C)(C)C)c1` [2,4-di-t-butyl phenol], the pKa is listed as 11.6.
As to `COc1ccccc1O` [2-methoxy-phenol, 2-methoxyphenol], the pKa was 10.0.
`Oc1ccccc1Cl` [o-chlorophenol]: the pKa is 8.5.
For `Oc1cccc(Cl)c1` [m-chlorophenol], the pKa is 8.8.
`Oc1c(Cl)cccc1Cl` [2,6-DCP, 2,6-dichlorophenol]: the pKa is given as 6.8.
As for `Oc1ccc(Cl)cc1` [p-chlorophenol], the pKa is 9.2.

The data set is the same for the next values; noted with them: in place of a pKa value.
In the case of `C1COCCO1` [1,4-dioxane, reference compound], the “basicity (footnote to pKa column, in words)” value is “basic”.
